Experimental data reported in patent publication US20250120967A1, “TYROSINE KINASES INHIBITORS AND USES THEREOF” (GREAT NOVEL THERAPEUTICS BIOTECH & MEDICALS CORPORATION, priority 2023, published 2025).

Legend:
Test in all cases: NCI-60 screen (SRB)
Type in all cases: cell-based
786-0 = details: Homo sapiens; 786-0, Renal Cancer
Procedure: (§1) The human tumor cell lines of the cancer screening panel are grown in RPMI 1640 medium containing 5% fetal bovine serum and 2 mM L-glutamine. For a typical screening experiment, cells are inoculated into 96 well microtiter plates in 100 μL at plating densities ranging from 5,000 to 40,000 cells/well depending on the doubling time of individual cell lines. After cell inoculation, the microtiter plates are incubated at 37° C., 5% CO2, 95% air and 100% relative humidity for 24 h prior to addition of experimental drugs. After 24 h, two plates of each cell line are fixed in situ with TCA, to represent a measurement of the cell population for each cell line at the time of drug addition (Tz). Experimental drugs are solubilized in dimethyl sulfoxide at 400-fold the desired final maximum test concentration and stored frozen prior to use. At the time of drug addition, an aliquot of frozen concentrate is thawed and diluted to twice the desired final maximum test concentration with complete medium containing 50 µg/ml gentamicin. An additional four, 10-fold or M log serial dilutions are made to provide a total of five drug concentrations plus control. Aliquots of 100 μl of these different drug dilutions are added to the appropriate microtiter wells already containing 100 μl of medium, resulting in the required final drug concentrations. Following drug addition, the plates are incubated for an additional 48 h at 37° C., 5% CO2, 95% air, and 100% relative humidity. For adherent cells, the assay is terminated by the addition of cold TCA. Cells are fixed in situ by the gentle addition of 50 μl of cold 50% (w/v) TCA (final concentration, 10% TCA) and incubated for 60 minutes at 4° C. The supernatant is discarded, and the plates are washed five times with tap water and air dried. Sulforhodamine B (SRB) solution (100 l) at 0.4% (w/v) in 1% acetic acid is added to each well, and plates are incubated for 10 minutes at room temperature. After staining, unbound dye is removed by washing five times with 1% acetic acid and the plates are air dried. Bound stain is subsequently solubilized with 10 mM trizma base, and the absorbance is read on an automated plate reader at a wavelength of 515 nm. For suspension cells, the methodology is the same except that the assay is terminated by fixing settled cells at the bottom of the wells by gently adding 50 μl of 80% TCA (final concentration, 16% TCA).

A498 = details: Homo sapiens; A498, Renal Cancer
Procedure: as §1

A549/ATCC = details: Homo sapiens, Non-Small Cell Lung Cancer
Procedure: as §1

ACHN = details: Homo sapiens, Renal Cancer
Procedure: as §1

BT-549 = details: Homo sapiens; BT-549, Breast Cancer
Procedure: as §1

CAKI-1 = details: Homo sapiens; CAKI-1, Renal Cancer
Procedure: as §1

CCRF-CEM = details: Homo sapiens, Leukemia
Procedure: as §1

COLO 205 = details: Homo sapiens; COLO 205, Colon Cancer
Procedure: as §1

DU-145 = details: Homo sapiens; DU-145, Prostate Cancer
Procedure: as §1

EKVX = details: Homo sapiens, Non-Small Cell Lung Cancer
Procedure: as §1

HCT-116 = details: Homo sapiens; HCT-116, Colon Cancer
Procedure: as §1

HL-60(TB) = details: Homo sapiens, Leukemia
Procedure: as §1

HT29 = details: Homo sapiens, HT-29; HT29, Colon Cancer
Procedure: as §1

IGROV1 = details: Homo sapiens, IGROV-1; IGROV1, Ovarian Cancer
Procedure: as §1

K-562 = details: Homo sapiens, K562; K-562, Leukemia
Procedure: as §1

LOX IMVI = details: Homo sapiens, Melanoma
Procedure: as §1

M14 = details: Homo sapiens; M14, Melanoma
Procedure: as §1

MDA-MB-231/ATCC = details: Homo sapiens, Breast Cancer
Procedure: as §1

MDA-MB-468 = details: Homo sapiens; MDA-MB-468, Breast Cancer
Procedure: as §1

NCI-H322M = details: Homo sapiens, Non-Small Cell Lung Cancer
Procedure: as §1

NCI-H522 = details: Homo sapiens; NCI-H522, Non-Small Cell Lung Cancer
Procedure: as §1

OVCAR-3 = details: Homo sapiens; OVCAR-3, Ovarian Cancer
Procedure: as §1

OVCAR-5 = details: Homo sapiens; OVCAR-5, Ovarian Cancer
Procedure: as §1

PC-3 = details: Homo sapiens; PC-3, Prostate Cancer
Procedure: as §1

SF-539 = details: Homo sapiens; SF-539, CNS Cancer
Procedure: as §1

SK-MEL-5 = details: Homo sapiens; SK-MEL-5, Melanoma
Procedure: as §1

SR = details: Homo sapiens, Leukemia
Procedure: as §1

TK-10 = details: Homo sapiens; TK-10, Renal Cancer
Procedure: as §1

U251 = details: Homo sapiens, U-251; U251, CNS Cancer
Procedure: as §1

UACC-62 = details: Homo sapiens; UACC-62, Melanoma
Procedure: as §1

Work on COc1cc2nccc(Oc3ccc(NC(=O)C4(NC(=O)c5ccc(F)cc5)CC4)cc3F)c2cc1OC [Cbo-02, N-(1-((4-((6,7-diMethoxyquinolin-4-yl)oxy)-3-fluorophenyl)carbamoyl)cyclopropyl)-4-fluorobenzamide] yielded a GI50 (786-0) of 1.98 µM, a GI50 (A498) of 3.28 µM and a GI50 (A549/ATCC) of 3.27 µM. The GI50 (ACHN) was 2.14 µM, the GI50 (BT-549) was 1.43 µM and the GI50 (CAKI-1) was 1.54 µM. For the same compound, the GI50 (CCRF-CEM) was 2.24 µM, the GI50 (COLO 205) was 1.75 µM and the GI50 (DU-145) was 3.36 µM. The GI50 (EKVX) was 1.03 µM, the GI50 (HCT-116) was 1.52 µM and the GI50 (HL-60(TB)) was 2.2 µM. The GI50 (HT29) was 1.82 µM, the GI50 (IGROV1) was 4.48 µM and the GI50 (K-562) was 3.05 µM. It also gave a GI50 (LOX IMVI) of 1.99 µM, a GI50 (M14) of 1.91 µM and a GI50 (MDA-MB-231/ATCC) of 1.74 µM. It also gave a GI50 (MDA-MB-468) of 1.72 µM, a GI50 (NCI-H322M) of 3.94 µM and a GI50 (NCI-H522) of 2.07 µM. For the same compound, the GI50 (OVCAR-3) was 2.4 µM, the GI50 (OVCAR-5) was 1.91 µM and the GI50 (PC-3) was 3.94 µM. For the same compound, the GI50 (SF-539) was 1.69 µM, the GI50 (SK-MEL-5) was 4.01 µM and the GI50 (SR) was 3.33 µM. For the same compound, the GI50 (TK-10) was 1.83 µM, the GI50 (U251) was 2.88 µM and the GI50 (UACC-62) was 1.84 µM.

COc1cc2nccc(Oc3ccc(NC(=O)C4(NC(=O)c5ccc(F)cc5)CC4)cc3F)c2cc1Oc1ccc(N)cc1F [Cbo-10] showed a GI50 (786-0) greater than 100 µM, a GI50 (A498) greater than 100 µM and a GI50 (A549/ATCC) of 0.483 µM. It also gave a GI50 (ACHN) of 0.683 µM, a GI50 (BT-549) of 2.41 µM and a GI50 (CAKI-1) of 0.276 µM. It also gave a GI50 (CCRF-CEM) of 0.436 µM, a GI50 (COLO 205) of 0.931 µM and a GI50 (DU-145) of 1.7 µM. For the same compound, the GI50 (EKVX) was 0.488 µM, the GI50 (HCT-116) was 2.63 µM and the GI50 (HL-60(TB)) was 0.521 µM. For the same compound, the GI50 (HT29) was 0.413 µM, the GI50 (IGROV1) was 0.714 µM and the GI50 (K-562) was 1.74 µM. It also gave a GI50 (LOX IMVI) of 1.78 µM, a GI50 (M14) of 1.49 µM and a GI50 (MDA-MB-231/ATCC) of 4.43 µM. It also gave a GI50 (MDA-MB-468) of 1.73 µM, a GI50 (NCI-H322M) of 0.518 µM and a GI50 (NCI-H522) of 0.45 µM. The GI50 (OVCAR-3) was greater than 100 µM, the GI50 (OVCAR-5) was 0.644 µM and the GI50 (PC-3) was greater than 100 µM. It also gave a GI50 (SF-539) greater than 100 µM, a GI50 (SK-MEL-5) of 6.97 µM and a GI50 (SR) of 0.345 µM. For the same compound, the GI50 (TK-10) was 0.455 µM, the GI50 (U251) was greater than 100 µM and the GI50 (UACC-62) was 0.915 µM.

Work on COc1cc2nccc(Oc3ccc(NC(=O)C4(C(=O)Nc5ccc(F)cc5)CC4)cc3F)c2cc1Oc1ccc(N)cc1F [Cbo-23] yielded a GI50 (786-0) of 0.86 µM, a GI50 (A498) of 0.459 µM and a GI50 (A549/ATCC) of 0.325 µM. It also gave a GI50 (ACHN) of 0.292 µM, a GI50 (BT-549) of 2.27 µM and a GI50 (CAKI-1) of 0.192 µM. For the same compound, the GI50 (CCRF-CEM) was 0.553 µM, the GI50 (COLO 205) was 0.283 µM and the GI50 (DU-145) was 0.429 µM. For the same compound, the GI50 (EKVX) was 0.389 µM, the GI50 (HCT-116) was 0.592 µM and the GI50 (HL-60(TB)) was 0.596 µM. For the same compound, the GI50 (HT29) was 2.15 µM, the GI50 (IGROV1) was 0.264 µM and the GI50 (K-562) was 0.13 µM. It also gave a GI50 (LOX IMVI) of 0.306 µM, a GI50 (M14) of 0.459 µM and a GI50 (MDA-MB-231/ATCC) of 0.981 µM. For the same compound, the GI50 (MDA-MB-468) was 1.12 µM, the GI50 (NCI-H322M) was 0.444 µM and the GI50 (NCI-H522) was 0.33 µM. It also gave a GI50 (OVCAR-3) of 0.829 µM, a GI50 (OVCAR-5) of 0.389 µM and a GI50 (PC-3) of 1.6 µM. For the same compound, the GI50 (SF-539) was 0.179 µM, the GI50 (SK-MEL-5) was 1.38 µM and the GI50 (SR) was 0.0938 µM. It also gave a GI50 (TK-10) of 0.224 µM, a GI50 (U251) of 2.38 µM and a GI50 (UACC-62) of 0.112 µM.
